According to ChEMBL document CHEMBL3804798, “Design, synthesis and anti-inflammatory effects of novel 9-O-substituted-berberine derivatives” (Medchemcomm, 2016):
Calls of active or inactive are those of the source. No cut-off for these calls is given here.

Columns and labels:
[1] = Cytotoxicity against mouse RAW264.7 cells assessed as cell viability at 5 uM after 48 hrs by MTT assay relative to control; type: cell-based; details: read-out: Activity
[2] = Cytotoxicity against mouse RAW264.7 cells assessed as cell viability at 10 uM after 48 hrs by MTT assay relative to control; type: cell-based; details: read-out: Activity
RAW264.7 [3] = experiment: Antiinflammatory activity against mouse RAW264.7 cells assessed as inhibition of LPS-induced NO release at 5 uM after 24 hrs by Griess assay relative to control; type: functional; details: RAW264.7, 24 h
RAW264.7 [4] = experiment: Antiinflammatory activity against mouse LPS-induced RAW264.7 cells assessed as inhibition of TNFalpha production at 5 uM after 24 hrs by cytokine enzyme-linked immunosorbent assay relative to control; type: functional; details: RAW264.7, 24 h
[5] = target: T1, NF-kappa-B inhibitor alpha (Mus musculus) (UniProt Q9Z1E3); experiment: Inhibition of LPS stimulated IkappaBaplha phosphorylation in mouse RAW264.7 cells preincubated for 2 hrs followed by LPS stimulation for 6 hrs by Western blot analysis; type: cell-based
T1 sequence (whole entry): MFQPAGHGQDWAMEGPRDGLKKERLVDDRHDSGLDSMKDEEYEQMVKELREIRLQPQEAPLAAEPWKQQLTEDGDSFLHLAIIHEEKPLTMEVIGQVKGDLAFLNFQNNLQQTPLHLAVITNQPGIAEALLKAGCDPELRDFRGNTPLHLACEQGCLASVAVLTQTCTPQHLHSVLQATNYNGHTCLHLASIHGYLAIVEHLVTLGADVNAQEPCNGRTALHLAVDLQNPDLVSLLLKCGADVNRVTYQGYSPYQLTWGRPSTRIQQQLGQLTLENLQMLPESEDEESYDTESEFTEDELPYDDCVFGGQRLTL

Danio rerio [6] = species on record: Danio rerio; experiment: Antiinflammatory activity in cut-tail neutrophil/macrophage double transgenic zebra fish larvae assessed as cut-tail-induced reduction in migration of primitive macrophages at 10 uM after 9 hrs by fluorescence microscopic analysis relative to control; type: functional, organism-based
Danio rerio [7] = species on record: Danio rerio; experiment: Antiinflammatory activity in cut-tail neutrophil/macrophage double transgenic zebra fish larvae assessed as cut-tail-induced migration of primitive macrophages at 10 uM after 3 to 6 hrs by fluorescence microscopic analysis relative to control; type: functional, organism-based
RAW264.7 [8] = experiment: Inhibition of LPS stimulated iNOS expression in mouse RAW264.7 cells preincubated for 2 hrs followed by LPS stimulation for 6 hrs by Western blot analysis; type: functional, cell-based
RAW264.7 [9] = experiment: Antiinflammatory activity against mouse RAW264.7 cells assessed as inhibition of LPS-induced NO release after 24 hrs by Griess assay relative to control; type: functional, cell-based
Danio rerio [10] = species on record: Danio rerio; experiment: Antiinflammatory activity in cut-tail neutrophil/macrophage double transgenic zebra fish larvae assessed as cut-tail-induced reduction in neutrophil level in wound site at 10 uM after 3 to 9 hrs by fluorescence microscopic analysis relative to control; type: functional, organism-based
RAW264.7 [11] = experiment: Antiinflammatory activity against mouse LPS-induced RAW264.7 cells assessed as inhibition of IL-6 production at 5 uM after 24 hrs by cytokine enzyme-linked immunosorbent assay relative to control; type: functional, cell-based

`COc1ccc2cc3[n+](cc2c1OC(=O)N1CCC(Cc2ccccc2)CC1)CCc1cc2c(cc1-3)OCO2` showed a viability at 48 h, 5 µM [1] of 97.6% and a viability at 48 h, 10 µM [2] of 87.9%.
With `COc1ccc2cc3[n+](cc2c1OC(=O)N(C)C1CCCCC1)CCc1cc2c(cc1-3)OCO2` the inhibition at 5 µM (RAW264.7 [3]) was 70.3%, the inhibition at 5 µM (RAW264.7 [4]) was 70% and the inhibition [5] was “Dose-dependent effect”. For the same compound, the viability at 48 h, 5 µM [1] was 99.3%, the Activity (Danio rerio [6]) was “Active” and the Activity (Danio rerio [7]) was “inactive”. For the same compound, the inhibition (RAW264.7 [8]) was “Dose-dependent effect”, the inhibition (RAW264.7 [9]) was “Dose-dependent effect” and the Activity (Danio rerio [10]) was “Active”. For the same compound, the viability at 48 h, 10 µM [2] was 83.2% and the inhibition (RAW264.7 [11]) was “Active”.
`COc1ccc2cc3[n+](cc2c1OC(=O)N1CCN(C2CCN(C)CC2)CC1)CCc1cc2c(cc1-3)OCO2` showed a viability at 48 h, 5 µM [1] of 107% and a viability at 48 h, 10 µM [2] of 102%.
With `COc1ccc2cc3[n+](cc2c1OC(=O)N1CCC(N2CCN(C)CC2)CC1)CCc1cc2c(cc1-3)OCO2` the viability at 48 h, 5 µM [1] was 101% and the viability at 48 h, 10 µM [2] was 104%.
`CCCN(CCC)C(=O)Oc1c(OC)ccc2cc3[n+](cc12)CCc1cc2c(cc1-3)OCO2` gave a viability at 48 h, 5 µM [1] of 101% and a viability at 48 h, 10 µM [2] of 93.9%.
For `COc1ccc2cc3[n+](cc2c1OC)CCc1cc2c(cc1-3)OCO2` [BERBERINE CHLORIDE], the inhibition at 5 µM (RAW264.7 [3]) was 21.1%, the viability at 48 h, 5 µM [1] was 99.4% and the viability at 48 h, 10 µM [2] was 97.2%.
Compound `CCOC(=O)N1CCN(C(=O)Oc2c(OC)ccc3cc4[n+](cc23)CCc2cc3c(cc2-4)OCO3)CC1` has an inhibition at 5 µM (RAW264.7 [3]) of 9.7%, a viability at 48 h, 5 µM [1] of 97.9% and a viability at 48 h, 10 µM [2] of 99.6%.
In the case of `COc1ccc2cc3[n+](cc2c1OC(=O)N1CCC(N2CCCCC2)CC1)CCc1cc2c(cc1-3)OCO2`, the viability at 48 h, 5 µM [1] is reported as 98.1% and the viability at 48 h, 10 µM [2] is reported as 100%.
`COc1ccc2c(c1)c(CC(=O)O)c(C)n2C(=O)c1ccc(Cl)cc1` [INDOMETHACIN] gave an inhibition at 5 µM (RAW264.7 [3]) of 20.8%, a viability at 48 h, 5 µM [1] of 99.8% and a viability at 48 h, 10 µM [2] of 99.6%.
Work on `COc1ccc2cc3[n+](cc2c1OC(=O)N1CCSCC1)CCc1cc2c(cc1-3)OCO2` yielded a viability at 48 h, 5 µM [1] of 96% and a viability at 48 h, 10 µM [2] of 109%.
Compound `CCOC(=O)C1CCN(CCCOc2c(OC)ccc3cc4[n+](cc23)CCc2cc3c(cc2-4)OCO3)CC1` has a viability at 48 h, 5 µM [1] of 98.5% and a viability at 48 h, 10 µM [2] of 99.5%.
Compound `COc1ccc2cc3[n+](cc2c1OC(=O)N1CCN(c2ncccn2)CC1)CCc1cc2c(cc1-3)OCO2` has a viability at 48 h, 5 µM [1] of 102% and a viability at 48 h, 10 µM [2] of 97.6%.
Work on `COc1ccc2cc3[n+](cc2c1OC(=O)N1CCN(c2ccccn2)CC1)CCc1cc2c(cc1-3)OCO2` yielded an inhibition at 5 µM (RAW264.7 [3]) of 12.9%, a viability at 48 h, 5 µM [1] of 103% and a viability at 48 h, 10 µM [2] of 109%.
In the case of `COc1ccc2cc3[n+](cc2c1OCCCN1CCN(c2ccncc2)CC1)CCc1cc2c(cc1-3)OCO2`, the inhibition at 5 µM (RAW264.7 [3]) is reported as 30.2%, the inhibition at 5 µM (RAW264.7 [4]) is reported as 90% and the inhibition [5] is reported as “Dose-dependent effect”. The viability at 48 h, 5 µM [1] was 103%, the Activity (Danio rerio [6]) was “Active” and the Activity (Danio rerio [7]) was “inactive”. For the same compound, the inhibition (RAW264.7 [8]) was “Dose-dependent effect”, the inhibition (RAW264.7 [9]) was “Dose-dependent effect” and the Activity (Danio rerio [10]) was “Active”. The viability at 48 h, 10 µM [2] was 100% and the inhibition (RAW264.7 [11]) was “Active”.
In the case of `C=CCN(CC=C)C(=O)Oc1c(OC)ccc2cc3[n+](cc12)CCc1cc2c(cc1-3)OCO2`, the viability at 48 h, 5 µM [1] is reported as 100% and the viability at 48 h, 10 µM [2] is reported as 92.2%.
`CCOC(=O)N1CCN(CCCOc2c(OC)ccc3cc4[n+](cc23)CCc2cc3c(cc2-4)OCO3)CC1` showed a viability at 48 h, 5 µM [1] of 103% and a viability at 48 h, 10 µM [2] of 99.1%.
Work on `COc1ccc2cc3[n+](cc2c1OC(=O)N1CCOCC1)CCc1cc2c(cc1-3)OCO2` yielded a viability at 48 h, 5 µM [1] of 105% and a viability at 48 h, 10 µM [2] of 96%.
